ChEMBL document CHEMBL1201862, “PubChem BioAssay data set” (2004)
The source made the active and inactive calls. No stated cut-off is given here; in the data, active = IC50 of 10 µM or less and inactive = more.

Molecular target: Heat shock protein HSP 90-alpha (Homo sapiens, UniProt P07900)
Assay: Luminescence-based dose response biochemical high throughput screening assay for inhibitors of the Heat Shock Protein 90 (HSP90). [Related pubchem assays: 1831 (Summary AID.), 1846 (Confirmation screen.), 1789 (Primary screen.)]

O=C1C(Nc2ccc(O)cc2)=C/C(=N/S(=O)(=O)c2cccs2)c2ccccc21
IC50: 0.656 µM (active)
